According to paper PMC9090415, “Discovery of small molecule inhibitors of Plasmodium falciparum apicoplast DNA polymerase” (Journal of Enzyme Inhibition and Medicinal Chemistry, 2022):

Target: P. falciparum apicoplast DNA polymerase (Pf-apPOL) (Plasmodium falciparum, UniProt Q8ILY1)
Test: Fluorescence-based high-throughput DNA polymerase assay (molecular beacon), primary screen and dose-response
Assay type: biochemical
Details: for DNA Pol: unit not given, 90 min, 10 µM; for % inhibition Apo pol 10' 2.5 / % inhibition Apo pol 10' 5 / % inhibition Apo pol 10' 10 / % inhibition Apo pol 10' 20 / % inhibition Apo pol 10' 40 / % inhibition Apo pol 10' 80: read at 10'; for % inhibition Apo pol 10' 80 / % inhibition Apol 90' 80 / % inhibition apPOL 180' 80 / % inhibition Apo pol 5' 80 / % inhibition Apol 40' 80 / % inhibition ApPOL 90' 80: concentration 80; for % inhibition Apol 90' 2.5 / % inhibition Apol 90' 5 / % inhibition Apol 90' 10 / % inhibition Apol 90' 20 / % inhibition Apol 90' 40 / % inhibition Apol 90' 80 / % inhibition ApPOL 90' 2.5 / % inhibition ApPOL 90' 5 / % inhibition ApPOL 90' 10 / % inhibition ApPOL 90' 20 / % inhibition ApPOL 90' 40 / % inhibition ApPOL 90' 80: read at 90'; for % inhibition apPOL 180' 2.5 / % inhibition apPOL 180' 5 / % inhibition apPOL 180' 10 / % inhibition apPOL 180' 20 / % inhibition apPOL 180' 40 / % inhibition apPOL 180' 80: read at 180'; for % inhibition Apo pol 5' 2.5 / % inhibition Apo pol 5' 5 / % inhibition Apo pol 5' 10 / % inhibition Apo pol 5' 20 / % inhibition Apo pol 5' 40 / % inhibition Apo pol 5' 80: read at 5'; for % inhibition Apol 40' 2.5 / % inhibition Apol 40' 5 / % inhibition Apol 40' 10 / % inhibition Apol 40' 20 / % inhibition Apol 40' 40 / % inhibition Apol 40' 80: read at 40'
Method in brief: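 Single-point screening used 10 µM compound with 20 nM polymerase, 20 nM hairpin substrate and 6 µM dNTPs for 90 min at 25 °C. Confirmatory titrations (2.5–80 µM) followed fluorescence at three times, and IC50 was derived from a fit including a cooperativity term n.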

[1] = 186 hits, DNA Pol (screen value)

Chain of P. falciparum apicoplast DNA polymerase (Pf-apPOL) (Q8ILY1 entry or part of it): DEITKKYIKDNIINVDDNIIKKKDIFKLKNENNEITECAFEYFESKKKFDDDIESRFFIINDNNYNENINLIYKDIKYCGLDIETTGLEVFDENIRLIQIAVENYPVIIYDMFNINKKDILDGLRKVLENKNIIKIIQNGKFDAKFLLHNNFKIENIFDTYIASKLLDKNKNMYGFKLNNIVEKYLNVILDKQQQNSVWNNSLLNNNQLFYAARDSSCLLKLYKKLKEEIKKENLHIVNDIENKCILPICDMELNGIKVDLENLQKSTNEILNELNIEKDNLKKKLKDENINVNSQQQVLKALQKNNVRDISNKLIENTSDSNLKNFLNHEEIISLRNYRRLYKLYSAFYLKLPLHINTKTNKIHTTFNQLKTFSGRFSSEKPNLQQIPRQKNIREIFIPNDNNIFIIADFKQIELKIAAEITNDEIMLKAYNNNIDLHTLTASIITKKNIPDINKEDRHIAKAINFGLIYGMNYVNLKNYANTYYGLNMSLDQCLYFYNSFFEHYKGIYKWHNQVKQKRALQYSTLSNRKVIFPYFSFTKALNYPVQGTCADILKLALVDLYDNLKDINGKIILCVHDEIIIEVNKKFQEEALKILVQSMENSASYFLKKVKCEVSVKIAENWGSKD

Q: How did the “DNA Pol” value [1] turn out when CCCc1ccc(Oc2coc3cc(OC)ccc3c2=O)cc1 [KU0193249] was run?
A: 73

Q: What about the “DNA Pol” value ('DNA Pol' (screen value)) of the same molecule?
A: 73

Q: What about the “% inhibition Apo pol 10' 2.5” value (DRC-1, concentration 2.5) of the same molecule?
A: 7.919%

Q: And the “% inhibition Apo pol 10' 5” value (DRC-1, concentration 5)?
A: 6.719%

Q: And the “% inhibition Apo pol 10' 10” value (DRC-1, concentration 10)?
A: 11.6444%

Q: What about the “% inhibition Apo pol 10' 20” value (DRC-1, concentration 20) of the same molecule?
A: 12.8685%

Q: What about the “% inhibition Apo pol 10' 40” value (DRC-1, concentration 40) of the same molecule?
A: 28.2048%

Q: What about the “% inhibition Apo pol 10' 80” value (DRC-1) of the same molecule?
A: 56.0479%

Q: And the “% inhibition Apol 90' 2.5” value (DRC-1, concentration 2.5)?
A: 14.2398%

Q: What about the “% inhibition Apol 90' 5” value (DRC-1, concentration 5) of the same molecule?
A: 11.6391%

Q: What about the “% inhibition Apol 90' 10” value (DRC-1, concentration 10) of the same molecule?
A: 17.4321%

Q: And the “% inhibition Apol 90' 20” value (DRC-1, concentration 20)?
A: 14.1885%

Q: And the “% inhibition Apol 90' 40” value (DRC-1, concentration 40)?
A: 28.8567%

Q: What about the “% inhibition Apol 90' 80” value (DRC-1) of the same molecule?
A: 54.3218%

Q: What about the “% inhibition apPOL 180' 2.5” value (DRC-1, concentration 2.5) of the same molecule?
A: 21.2124%

Q: What about the “% inhibition apPOL 180' 5” value (DRC-1, concentration 5) of the same molecule?
A: 19.9497%

Q: What about the “% inhibition apPOL 180' 10” value (DRC-1, concentration 10) of the same molecule?
A: 25.9143%

Q: And the “% inhibition apPOL 180' 20” value (DRC-1, concentration 20)?
A: 21.3211%

Q: What about the “% inhibition apPOL 180' 40” value (DRC-1, concentration 40) of the same molecule?
A: 35.4665%

Q: And the “% inhibition apPOL 180' 80” value (DRC-1)?
A: 56.5719%

Q: And the “% inhibition Apo pol 5'” value (DRC-2, concentration 2.5)?
A: 8%

Q: And the “% inhibition Apo pol 5'” value (DRC-2, concentration 5)?
A: 12%

Q: What about the “% inhibition Apo pol 5'” value (DRC-2, concentration 20) of the same molecule?
A: 17%

Q: And the “% inhibition Apo pol 5'” value (DRC-2, concentration 40)?
A: 20%

Q: What about the “% inhibition Apol 40'” value (DRC-2, concentration 10) of the same molecule?
A: 17%

Q: What about the “% inhibition Apol 40'” value (DRC-2, concentration 20) of the same molecule?
A: 20%

Q: And the “% inhibition Apol 40'” value (DRC-2, concentration 40)?
A: 25%

Q: And the “% inhibition ApPOL 90'” value (DRC-2, concentration 10)?
A: 17%

Q: And the “% inhibition ApPOL 90'” value (DRC-2, concentration 20)?
A: 22%

Q: What about the “% inhibition ApPOL 90'” value (DRC-2, concentration 40) of the same molecule?
A: 25%

Q: And the “% inhibition apPOL 180'” value (DRC-2, concentration 5)?
A: 8%

Q: What about the “% inhibition apPOL 180'” value (DRC-2, concentration 10) of the same molecule?
A: 12%

Q: What about the “% inhibition apPOL 180'” value (DRC-2, concentration 40) of the same molecule?
A: 22%

Q: And the “% inhibition Apo pol 5' 2.5” value (DRC-2, concentration 2.5)?
A: 8%

Q: What about the “% inhibition Apo pol 5' 5” value (DRC-2, concentration 5) of the same molecule?
A: 12%

Q: And the “% inhibition Apo pol 5' 10” value (DRC-2, concentration 10)?
A: 13%

Q: What about the “% inhibition Apo pol 5' 20” value (DRC-2, concentration 20) of the same molecule?
A: 17%

Q: What about the “% inhibition Apo pol 5' 40” value (DRC-2, concentration 40) of the same molecule?
A: 20%

Q: And the “% inhibition Apo pol 5' 80” value (DRC-2)?
A: 36%

Q: What about the “% inhibition Apol 40' 2.5” value (DRC-2, concentration 2.5) of the same molecule?
A: 6.51%

Q: And the “% inhibition Apol 40' 5” value (DRC-2, concentration 5)?
A: 15%

Q: And the “% inhibition Apol 40' 10” value (DRC-2, concentration 10)?
A: 17%

Q: And the “% inhibition Apol 40' 20” value (DRC-2, concentration 20)?
A: 20%

Q: What about the “% inhibition Apol 40' 40” value (DRC-2, concentration 40) of the same molecule?
A: 25%

Q: And the “% inhibition Apol 40' 80” value (DRC-2)?
A: 47%

Q: What about the “% inhibition ApPOL 90' 2.5” value (DRC-2, concentration 2.5) of the same molecule?
A: 4.24%

Q: What about the “% inhibition ApPOL 90' 5” value (DRC-2, concentration 5) of the same molecule?
A: 14%

Q: What about the “% inhibition ApPOL 90' 10” value (DRC-2, concentration 10) of the same molecule?
A: 17%

Q: What about the “% inhibition ApPOL 90' 20” value (DRC-2, concentration 20) of the same molecule?
A: 22%

Q: And the “% inhibition ApPOL 90' 40” value (DRC-2, concentration 40)?
A: 25%

Q: What about the “% inhibition ApPOL 90' 80” value (DRC-2) of the same molecule?
A: 51%

Q: What about the “% inhibition apPOL 180' 2.5” value (DRC-2, concentration 2.5) of the same molecule?
A: -0.201%

Q: What about the “% inhibition apPOL 180' 5” value (DRC-2, concentration 5) of the same molecule?
A: 8%

Q: What about the “% inhibition apPOL 180' 10” value (DRC-2, concentration 10) of the same molecule?
A: 12%

Q: What about the “% inhibition apPOL 180' 20” value (DRC-2, concentration 20) of the same molecule?
A: 18%

Q: What about the “% inhibition apPOL 180' 40” value (DRC-2, concentration 40) of the same molecule?
A: 22%

Q: What about the “% inhibition apPOL 180' 80” value (DRC-2) of the same molecule?
A: 52%

Q: Which “DNA Pol” value [1] does the source give for CC(C)CC(C(=O)O)N1C(=O)C2C3C=CC(C2C1=O)C1C(=O)N(C(CC(C)C)C(=O)O)C(=O)C31 (stereo not drawn) [KU0193449] here?
A: 28

Q: And the “DNA Pol” value ('DNA Pol' (screen value))?
A: 28

Q: What about the “% inhibition Apo pol 10' 2.5” value (DRC-1, concentration 2.5) of the same molecule?
A: 0%

Q: What about the “% inhibition Apo pol 10' 5” value (DRC-1, concentration 5) of the same molecule?
A: 0.7522%

Q: What about the “% inhibition Apo pol 10' 10” value (DRC-1, concentration 10) of the same molecule?
A: 13.4113%

Q: What about the “% inhibition Apo pol 10' 20” value (DRC-1, concentration 20) of the same molecule?
A: 21.694%

Q: And the “% inhibition Apo pol 10' 40” value (DRC-1, concentration 40)?
A: 38.6815%

Q: And the “% inhibition Apo pol 10' 80” value (DRC-1)?
A: 61.0106%

Q: What about the “% inhibition Apol 90' 2.5” value (DRC-1, concentration 2.5) of the same molecule?
A: 5.482%

Q: And the “% inhibition Apol 90' 5” value (DRC-1, concentration 5)?
A: 4.361%

Q: And the “% inhibition Apol 90' 10” value (DRC-1, concentration 10)?
A: 18.2004%

Q: What about the “% inhibition Apol 90' 20” value (DRC-1, concentration 20) of the same molecule?
A: 26.7933%

Q: What about the “% inhibition Apol 90' 40” value (DRC-1, concentration 40) of the same molecule?
A: 43.0787%

Q: What about the “% inhibition Apol 90' 80” value (DRC-1) of the same molecule?
A: 61.6554%

Q: And the “% inhibition apPOL 180' 2.5” value (DRC-1, concentration 2.5)?
A: 11.5947%

Q: What about the “% inhibition apPOL 180' 5” value (DRC-1, concentration 5) of the same molecule?
A: 8.787%

Q: And the “% inhibition apPOL 180' 10” value (DRC-1, concentration 10)?
A: 22.2545%

Q: What about the “% inhibition apPOL 180' 20” value (DRC-1, concentration 20) of the same molecule?
A: 29.0446%

Q: And the “% inhibition apPOL 180' 40” value (DRC-1, concentration 40)?
A: 41.2526%

Q: And the “% inhibition apPOL 180' 80” value (DRC-1)?
A: 55.1992%

Q: What about the “% inhibition Apo pol 5'” value (DRC-2, concentration 20) of the same molecule?
A: 13%

Q: And the “% inhibition Apol 40'” value (DRC-2, concentration 20)?
A: 20%

Q: And the “% inhibition ApPOL 90'” value (DRC-2, concentration 20)?
A: 20%

Q: And the “% inhibition apPOL 180'” value (DRC-2, concentration 20)?
A: 13%

Q: What about the “% inhibition Apo pol 5' 2.5” value (DRC-2, concentration 2.5) of the same molecule?
A: -1.41%

Q: What about the “% inhibition Apo pol 5' 5” value (DRC-2, concentration 5) of the same molecule?
A: 2.69%

Q: And the “% inhibition Apo pol 5' 10” value (DRC-2, concentration 10)?
A: 10%

Q: And the “% inhibition Apo pol 5' 20” value (DRC-2, concentration 20)?
A: 13%

Q: And the “% inhibition Apo pol 5' 40” value (DRC-2, concentration 40)?
A: 23%

Q: What about the “% inhibition Apo pol 5' 80” value (DRC-2) of the same molecule?
A: 31%

Q: What about the “% inhibition Apol 40' 2.5” value (DRC-2, concentration 2.5) of the same molecule?
A: -0.315%

Q: And the “% inhibition Apol 40' 5” value (DRC-2, concentration 5)?
A: 4.49%

Q: What about the “% inhibition Apol 40' 10” value (DRC-2, concentration 10) of the same molecule?
A: 12%

Q: What about the “% inhibition Apol 40' 20” value (DRC-2, concentration 20) of the same molecule?
A: 20%

Q: What about the “% inhibition Apol 40' 40” value (DRC-2, concentration 40) of the same molecule?
A: 33%

Q: And the “% inhibition Apol 40' 80” value (DRC-2)?
A: 49%

Q: And the “% inhibition ApPOL 90' 2.5” value (DRC-2, concentration 2.5)?
A: -0.778%

Q: What about the “% inhibition ApPOL 90' 5” value (DRC-2, concentration 5) of the same molecule?
A: 4.24%

Q: And the “% inhibition ApPOL 90' 10” value (DRC-2, concentration 10)?
A: 11%

Q: And the “% inhibition ApPOL 90' 20” value (DRC-2, concentration 20)?
A: 20%

Q: What about the “% inhibition ApPOL 90' 40” value (DRC-2, concentration 40) of the same molecule?
A: 34%

Q: And the “% inhibition ApPOL 90' 80” value (DRC-2)?
A: 51%

Q: What about the “% inhibition apPOL 180' 2.5” value (DRC-2, concentration 2.5) of the same molecule?
A: -5%

Q: And the “% inhibition apPOL 180' 5” value (DRC-2, concentration 5)?
A: -2.57%

Q: And the “% inhibition apPOL 180' 10” value (DRC-2, concentration 10)?
A: 5%

Q: What about the “% inhibition apPOL 180' 20” value (DRC-2, concentration 20) of the same molecule?
A: 13%

Q: What about the “% inhibition apPOL 180' 40” value (DRC-2, concentration 40) of the same molecule?
A: 28%

Q: What about the “% inhibition apPOL 180' 80” value (DRC-2) of the same molecule?
A: 47%
